Values of other authors, collected in patent US7799530B2, “Genetic polymorphisms associated with cardiovascular disorders and drug response, methods of detection and uses thereof” (Celera Corporation, priority 2005, dated 2010).

Assays:
rhabdomyolysis = settings: in vivo; cited from earlier work
[1] = system: acute coronary events and LDL-C in subjects with average cholesterol levels; settings: AFCAPS/TexCAPS; cited from earlier work

SMILES | rhabdomyolysis-related deaths (rhabdomyolysis) | LDL-C reduction (average) [1] | decrease in events [1]
COCc1c(C(C)C)nc(C(C)C)c(/C=C/[C@@H](O)C[C@@H](O)CC(=O)O)c1-c1ccc(F)cc1 [cerevastatin] | relatively high level of rhabdomyolysis-related deaths | – | –
CC[C@H](C)C(=O)O[C@H]1C[C@@H](C)C=C2C=C[C@H](C)[C@H](CC[C@@H]3C[C@@H](O)CC(=O)O3)[C@H]21 [lovastatin] | – | 25% | 37%
